# Molecular target: T1, Estrogen receptor (Homo sapiens, UniProt P03372)
# T1 sequence (P03372 whole entry): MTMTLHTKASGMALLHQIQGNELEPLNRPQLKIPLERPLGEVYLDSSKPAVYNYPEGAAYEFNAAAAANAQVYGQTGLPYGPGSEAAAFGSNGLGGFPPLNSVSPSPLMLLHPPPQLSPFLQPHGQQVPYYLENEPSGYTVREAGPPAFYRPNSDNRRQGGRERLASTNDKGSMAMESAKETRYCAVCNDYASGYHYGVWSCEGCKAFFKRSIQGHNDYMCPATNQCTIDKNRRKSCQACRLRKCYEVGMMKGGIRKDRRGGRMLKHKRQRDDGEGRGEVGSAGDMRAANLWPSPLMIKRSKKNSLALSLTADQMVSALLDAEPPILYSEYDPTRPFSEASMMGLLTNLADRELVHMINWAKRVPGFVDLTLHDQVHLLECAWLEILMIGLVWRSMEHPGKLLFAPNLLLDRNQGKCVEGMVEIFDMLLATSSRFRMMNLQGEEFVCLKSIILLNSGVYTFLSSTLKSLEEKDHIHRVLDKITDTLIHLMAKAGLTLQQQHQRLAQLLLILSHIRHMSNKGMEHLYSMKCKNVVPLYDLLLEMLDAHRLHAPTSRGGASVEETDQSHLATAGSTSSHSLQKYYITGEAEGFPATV
# Assay: Displacement of [3H]estradiol from estrogen receptor
row,IC50 [nM],Structure (SMILES)
1,43,COc1cc(O)c2c(C=O)c(-c3ccc(O)cc3O)oc2c1 [EBENFURAN II]
2,46,COc1cc2oc(-c3ccc(O)cc3O)cc2cc1O [EBENFURAN I]

# — ChEMBL document CHEMBL1155648, “Three new arylobenzofurans from Onobrychis ebenoides and evaluation of their binding affinity for the estrogen receptor” (J Nat Prod, 2000)
